The compounds below were run against recombinant Human Phosphodiesterase B2 (PDE4B2) (Homo sapiens, UniProt Q07343) (assay: Human Phosphodiesterase B2 Radiometric Assay (yttrium silicate SPA beads, [3H]cyclic AMP)). Conditions: recombinant human PDE4B2, radiometric SPA assay, 8 nM [3H]cyclic AMP; read-out: PDE4B2 pIC50 (converted).
Format: biochemical
Description: Human Phosphodiesterase B2 Radiometric Assay
The assay uses recombinant Human Phosphodiesterase B2 (PDE4B2) produced in house (PrAZL0163), stored at −20° C. This assay is based on the observation that 5′AMP, the product of the reaction catalysed by PDE4, binds preferentially to yttrium silicate SPA beads (Amersham Biosciences, UK) compared to the substrate, cAMP. Compounds at the appropriate concentration were preincubated at 30 C for 30 min with an assay buffer containing 50 mM HEPES (pH 7.5), 8.3 mM MgCl2, 1.7 mM EGTA, 0.01% (w/v) Brij° 35 and 0.1 mg/mL recombinant PDE4B2. The reaction was started by the addition of [3H]cyclic AMP to give a final concentration of 8 nM, and was stopped 20 minutes after the addition of the substrate by the addition of yttrium silicate SPA beads containing 18 mM Zn SO4. Bound [3H]cyclic AMP was measured using a Topcount NXT (Packard Bioscience, UK). pIC50 values (presented in Table 15) were determined using Xlfit3 curve fitting, using model 205.

Sequence of recombinant Human Phosphodiesterase B2 (PDE4B2) (Q07343 1-564 isoform Q07343-2): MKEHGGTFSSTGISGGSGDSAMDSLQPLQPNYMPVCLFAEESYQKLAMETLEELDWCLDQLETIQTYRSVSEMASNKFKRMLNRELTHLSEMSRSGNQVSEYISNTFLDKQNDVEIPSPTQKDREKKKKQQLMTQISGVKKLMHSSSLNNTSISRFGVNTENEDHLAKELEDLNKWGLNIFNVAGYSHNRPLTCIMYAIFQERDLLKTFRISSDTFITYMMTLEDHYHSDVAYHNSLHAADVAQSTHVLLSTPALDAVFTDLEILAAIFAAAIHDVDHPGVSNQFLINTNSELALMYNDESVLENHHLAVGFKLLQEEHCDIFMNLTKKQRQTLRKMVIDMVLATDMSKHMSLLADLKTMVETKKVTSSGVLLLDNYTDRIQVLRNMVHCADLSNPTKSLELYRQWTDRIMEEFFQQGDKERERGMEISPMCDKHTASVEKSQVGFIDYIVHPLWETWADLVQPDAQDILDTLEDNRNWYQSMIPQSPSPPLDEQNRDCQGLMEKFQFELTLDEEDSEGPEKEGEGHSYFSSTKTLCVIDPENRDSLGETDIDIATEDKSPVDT

SMILES	IC50
O=c1c2cc(F)cnc2n(-c2cccc(-c3ccc(CN4CCCOCC4)cc3)c2)c(=O)n1[C@H]1CC[C@@H](NCc2cn3cc(F)ccc3n2)CC1 [Example 338, 6-fluoro-3-(cis-4-{[(6-fluoroimidazo[1,2-a]pyridin-2-yl)methyl]amino}cyclohexyl)-1-[4′-(1,4-oxazepan-4-ylmethyl)biphenyl-3-yl]pyrido[2,3-d]pyrimidine-2,4(1H,3H)-dione]	0.251 nM
O=c1c2cc(F)cnc2n(-c2cccc(-c3ccccc3)c2)c(=O)n1[C@H]1CC[C@@H](NCc2cn3cc(F)ccc3n2)CC1 [Example 74, 1-biphenyl-3-yl-6-fluoro-3-(cis-4-{[(6-fluoroimidazo[1,2-a]pyridin-2-yl)methyl]amino}cyclohexyl)pyrido[2,3-d]pyrimidine-2,4(1H,3H)-dione]	0.794 nM
CCCNC1(C(=O)N[C@H]2CC[C@@H](n3c(=O)c4cc(F)cnc4n(-c4cccc(-c5ccccc5CN5CCOCC5)c4)c3=O)CC2)CCCC1 [Example 275, N-{cis-4-[6-Fluoro-1-[2′-(morpholin-4-ylmethyl)biphenyl-3-yl]-2,4-dioxo-1,4-dihydropyrido[2,3-d]pyrimidin-3(2H)-yl]cyclohexyl}-1-(propylamino)cyclopentanecarboxamide]	3.98 nM
CC(C)N1CCN(Cc2ccc(-c3cccc(-n4c(=O)n([C@H]5CC[C@@H](NCc6c(C(F)(F)F)nn(C)c6Cl)CC5)c(=O)c5cc(F)cnc54)c3)cc2)CC1 [Example 262, 3-[cis-4-({[5-chloro-1-methyl-3-(trifluoromethyl)-1H-pyrazol-4-yl]methyl}amino)cyclohexyl]-6-fluoro-1-{4′-[(4-isopropyl-piperazin-1-yl}methyl]biphenyl-3-yl}pyrido[2,3-d]pyrimidine-2,4(1H,3H)-dione]	0.794 nM
Cc1cccc(C(=O)N[C@H]2CC[C@@H](n3c(=O)c4cc(F)cnc4n(-c4cccc(-c5ccc(CN6CCCN(C)CC6)cc5)c4)c3=O)CC2)n1 [Example 308, N-{cis-4-[6-fluoro-1-{4′-[(4-methyl-1,4-diazepan-1-yl)methyl]biphenyl-3-yl}-2,4-dioxo-1,4-dihydropyrido[2,3-d]pyrimidin-3 (2H)-yl]cyclohexyl}-6-methylpyridine-2-carboxamide]	0.0631 nM
O=C(N[C@H]1CC[C@@H](n2c(=O)c3cc(F)cnc3n(-c3cccc(-c4ccc(CCCO)cc4)c3)c2=O)CC1)c1cn2cc(F)ccc2n1 [Example 20, 6-fluoro-N-{cis-4-[6-fluoro-1-[4′-(3-hydroxypropyl)biphenyl-3-yl]-2,4-dioxo-1,4-dihydropyrido[2,3-d]pyrimidin-3(2H)-yl]cyclohexyl}imidazo[1,2-a]pyridine-2-carboxamide.]	0.02 nM
O=C(N[C@H]1CC[C@@H](n2c(=O)c3cc(F)cnc3n(-c3cccc(-c4ccc(CN5CCC(N6CCCCC6)CC5)cc4)c3)c2=O)CC1)c1nc2ccccc2[nH]1 [Example 298, N-{cis-4-[1-[4′-(1,4′-bipiperidin-1′-ylmethyl)biphenyl-3-yl]-6-fluoro-2,4-dioxo-1,4-dihydropyrido[2,3-d]pyrimidin-3(2R)-yl]cyclohexyl}-1H-benzimidazole-2-carboxamide]	0.0316 nM
CN(C)Cc1ccc(-c2cccc(-n3c(=O)n([C@H]4CC[C@@H](N)CC4)c(=O)c4cc(F)cnc43)c2)cc1 [Example 49, 3-(cis-4-aminocyclohexyl)-1-{4′-[(dimethylamino)methyl]biphenyl-3-yl}-6-fluoropyrido[2,3-d]pyrimidine-2,4(1H,3H)-dione]	12.6 nM
O=C(N[C@H]1CC[C@@H](n2c(=O)c3cc(F)cnc3n(-c3cccc(Cc4ccccc4)c3)c2=O)CC1)c1cn2ccccc2n1 [Example 34, N-{cis-4-[1-(3-benzylphenyl)-6-fluoro-2,4-dioxo-1,4-dihydropyrido[2,3-c]pyrimidin-3(2H)-yl]cyclohexyl}imidazo[1,2-a]pyridine-2-carboxamide]	0.126 nM
CC(=O)N1CCN(Cc2cc(O)ccc2-c2cccc(-n3c(=O)n([C@H]4CC[C@@H](NCc5cn6cc(F)ccc6n5)CC4)c(=O)c4cc(F)cnc43)c2)CC1 [Example 328, 1-{2′-[(4-acetylpiperazin-1-yl)methyl]-4′-hydroxybiphenyl-3-yl}-6-fluoro-3-(cis-4-{[(6-fluoroimidazo[1,2-a]pyridin-2-yl)methyl]amino}cyclohexyl)pyrido [2,3-d]pyrimidine-2,4(1H,3H)-dione]	0.01 nM
NC1(C(=O)N[C@H]2CC[C@@H](n3c(=O)c4cc(F)cnc4n(-c4cccc(-c5ccccc5)c4)c3=O)CC2)CC1 [Example 344, 1-amino-N-[cis-4-(1-biphenyl-3-yl-6-fluoro-2,4-dioxo-1,4-dihydropyrido[2,3-d]pyrimidin-3(2H)-yl)cyclohexyl]cyclopropanecarboxamide]	0.398 nM
O=C(N[C@H]1CC[C@@H](n2c(=O)c3cc(F)cnc3n(-c3cccc(-c4ccc(CN5CCOCC5)cc4)c3)c2=O)CC1)c1cn2cc(F)ccc2n1 [Example 28, 6-fluoro-N-{cis-4-[6-fluoro-1-[4′-(morpholin-4-ylmethyl)biphenyl-3-yl]-2,4-dioxo-1,4-dihydropyrido[2,3-d]pyrimidin-3(2H)-yl]cyclohexyl}imidazo[1,2-a]pyridine-2-carboxamide.]	0.0126 nM
CCCCc1ccc(C(=O)N[C@H]2CC[C@@H](n3c(=O)c4cc(F)cnc4n(-c4cccc(-c5ccc(CN6CCCNCC6)cc5)c4)c3=O)CC2)nc1 [Example 351, 5-butyl-N-{cis-4-[1-[4′-(1,4-diazepan-1-ylmethyl)biphenyl-3-yl]-6-fluoro-2,4-dioxo-1,4-dihydropyrido[2,3-d]pyrimidin-3(2H)-yl]cyclohexyl}pyridine-2-carboxamide]	0.0316 nM
CN1CCCN(Cc2ccc(-c3cccc(-n4c(=O)n([C@H]5CC[C@@H](NC(=O)C(C)(C)N)CC5)c(=O)c5cc(F)cnc54)c3)cc2)CC1 [Example 311, N-{cis-4-[6-fluoro-1-{4′-[(4-methyl-1,4-diazepan-1-yl)methyl]biphenyl-3-yl}-2,4-dioxo-1,4-dihydropyrido[2,3-d]pyrimidin-3(2H)-yl]cyclohexyl}-2-methylalaninamide]	1 nM
CC(C)N1CCN(Cc2ccc(-c3cccc(-n4c(=O)n([C@H]5CC[C@@H](NC(=O)c6cn7c(n6)CCCC7)CC5)c(=O)c5cc(F)cnc54)c3)cc2)CC1 [Example 134, N-{cis-4-[6-fluoro-1-{4′-[(4-isopropylpiperazin-1-yl)methyl]biphenyl-3-yl}-2,4-dioxo-1,4-dihydropyrido[2,3-d]pyrimidin-3(2H)-yl]cyclohexyl}-5,6,7,8-tetrahydroimidazo[1,2-a]pyridine-2-carboxamide]	0.00794 nM
CC(=O)n1cc(CN(Cc2cn(C(C)=O)c3ccccc23)[C@H]2CC[C@@H](n3c(=O)c4cc(F)cnc4n(-c4cccc(-c5ccc(CN6CCN(C(C)C)CC6)cc5)c4)c3=O)CC2)c2ccccc21 [Example 341, 3-(cis-4-{bis[(1-acetyl-1H-indol-3-yl)methyl]amino}cyclohexyl)-6-fluoro-1-{4′-[(4-isopropylpiperazin-1-yl)methyl]biphenyl-3-yl}pyrido[2,3-d]pyrimidine-2,4(1H,3H)-dione]	0.501 nM
O=C(N[C@H]1CC[C@@H](n2c(=O)c3cc(F)cnc3n(-c3cccc(C#Cc4cccnc4)c3)c2=O)CC1)c1cn2ccccc2n1 [Example 6, N-{cis-4-[6-fluoro-2,4-dioxo-1-[3-(pyridin-3-ylethynyl)phenyl]-1,4-dihydropyrido[2,3-d]pyrimidin-3(2H)-yl]cyclohexyl}imidazo[1,2-a]pyridine-2-carboxamide]	0.00794 nM
O=C(N[C@H]1CC[C@@H](n2c(=O)c3cc(F)cnc3n(CCc3ccccc3)c2=O)CC1)c1cn2cc(F)ccc2n1 [Example 38, 6-fluoro-N-{cis-4-[6-fluoro-2,4-dioxo-1-(2-phenylethyl)-1,4-dihydropyrido[2,3-d]pyrimidin-3(2H)-yl]cyclohexyl}imidazo[1,2-a]pyridine-2-carboxamide]	3.16 nM
CN(CCO)Cc1cc(O)ccc1-c1cccc(-n2c(=O)n([C@H]3CC[C@@H](NCc4cn5cc(F)ccc5n4)CC3)c(=O)c3cc(F)cnc32)c1 [Example 329, 6-fluoro-3-(cis-4-{[(6-fluoroimidazo[1,2-a]pyridin-2-yl)methyl]amino}cyclohexyl)-1-(4′-hydroxy-2′-{[(2-hydroxyethyl) (methyl)amino]methyl}biphenyl-3-yl)pyrido[2,3-d]pyrimidine-2,4(1H,3H)-dione]	0.126 nM
O=C(N[C@H]1CC[C@@H](n2c(=O)c3cc(F)cnc3n(-c3cccc(-c4ccc(CN5CCCNCC5)cc4)c3)c2=O)CC1)c1nc2ccccc2[nH]1 [Example 354, N-{cis-4-[1-[4′-(1,4-diazepan-1-ylmethyl)biphenyl-3-yl]-6-fluoro-2,4-dioxo-1,4-dihydropyrido[2,3-d]pyrimidin-3(2H)-yl]cyclohexyl}-1H-benzimidazole-2-carboxamide]	0.0398 nM
O=C(N[C@H]1CC[C@@H](n2c(=O)c3cc(F)cnc3n(-c3cccc(-c4ccc(C(F)(F)F)cc4)c3)c2=O)CC1)c1cn2cc(F)ccc2n1 [Example 29, 6-fluoro-N-{cis-4-[6-fluoro-2,4-dioxo-1-[4′-(trifluoromethyl)biphenyl-3-yl]-1,4-dihydropyrido[2,3-d]pyrimidin-3(2H)-yl]cyclohexyl}imidazo[1,2-a]pyridine-2-carboxamide.]	0.0794 nM

From patent US20100204203A1, “Chemical Compounds 637: Pyridopyrimidinediones as PDE4 Inhibitors” (priority 2007, published 2010)
